By IC50 is commonly meant the concentration that gives 50% inhibition.

The test concerns the target T1, human cathepsin K (Homo sapiens, UniProt P43235).
T1 construct: The proform of cathepsin K was converted to mature cathepsin K by brief exposure to pH 4; made in house; host or cells: baculovirus; Trichoplusia ni High Five cells (virus raised in Sf-9)
T1 sequence (P43235 115-329): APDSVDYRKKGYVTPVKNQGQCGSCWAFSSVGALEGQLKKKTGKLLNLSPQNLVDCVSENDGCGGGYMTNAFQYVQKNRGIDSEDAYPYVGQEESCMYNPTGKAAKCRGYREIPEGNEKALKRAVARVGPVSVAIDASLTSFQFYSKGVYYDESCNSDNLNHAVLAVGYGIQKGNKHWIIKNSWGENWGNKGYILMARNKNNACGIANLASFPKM
Description: Cathepsin K inhibition assay, human recombinant enzyme, fluorogenic substrate Cbz-Phe-Arg-AMC. It counts as biochemical. The following applies: Table 1, human cathepsin K; read-out: h Cat K IC50. The protocol: All assays for cathepsin K were carried out with human and rat recombinant enzyme. Assays for cathepsins S ? V were also carried out with human recombinant enzyme. Assays for human cathepsins B, H, and L were carried out with enzyme, purchased from Athens Research and Technology, Inc., prepared from human liver tissue. […] A stock substrate solution of Cbz-Phe-Arg-AMC was prepared at a concentration of 50 mM in dimethyl sulfoxide. This substrate was diluted into the assay for a final substrate concentration of 10 μM in the rat cathepsin K, human cathepsin K, and human cathepsin B assays; a final substrate concentration of 5 μM in the human cathepsin L assay; and a final substrate concentration of 2 μM in the human cathepsin V assay.
All assays contained 10% dimethyl sulfoxide. […] All assays were conducted at 30° C. Product fluorescence (excitation at 360 nm; emission at 440 nm, (except cathepsin H which used excitation at 340 nm; emission at 420 nm)) was monitored with a PerSeptive Biosystems Cytofluor II fluorescence plate reader. Product progress curves were generated over 2.3 h monitoring the formation of 7-amino-4-methylcoumarin product (or β-naphthalamide for cathepsin H).
Human and rat Cathepsin K:
Two liters of Spodoptera frugiperda (Sf-9) cells (ATCC) were grown in Grace's Supplemented medium (Life Technologies) supplemented with 2 g/L glucose, 10% fetal bovine serum (HyClone) and 0.1% pluronic F-68 (Life Technologies). […] The cells continued to grow for 72 h post-infection, before the virus was harvested by centrifugation at 1400×g for 30 min.
One and one-half liters of Trichoplusia ni (T. ni) High Five (™) cells [JRH Biosciences, Woodland, Calif. […] The cells were grown for 24 h at 28° C., 50 RPM, and 50% dissolved oxygen. […] Media were separated from cells at a rate of 1 L/min using the Centritech 100 ™ continuous-flow centrifuge (DuPont) operating at 200×g.
Protein Purification: Media (human and rat) were filtered through a Whatman 3 filter, and then loaded onto a 25 mL. Poros HS II (26 mm×47 mm) cation exchange column equilibrated in 25 mM sodium acetate at pH 5.5 (equilibration buffer). The column was washed until the absorbance reached the baseline value, and then the protein was eluted with a linear gradient from 0-2 M sodium chloride in the equilibration buffer. Column fractions were analyzed by SDS-PAGE, N-terminal sequencing, and mass spectrometry. Fractions containing the proform of cathepsin K were pooled and frozen at −80° C. The proform was concentrated in an Amicon Centriprep 10 and fractionated with a Superdex 75 column (26 mm×600 mm, Pharmacia) equilibrated in 400 mM sodium chloride, 25 mM sodium acetate at pH 5.5.
Cathepsin K Activation: The proform of cathepsin K was converted to mature cathepsin K by brief exposure to pH 4 in the presence of 5 mM L-cysteine. Typically, 5 mM L-cysteine was added to 10 mL of approximately 1 mg/mL procathepsin K. One mL of this solution was diluted ten-fold into 450 mM sodium acetate at pH 4.0 containing 5 mM L-cysteine. This solution was reacted at 23° C. for 2 min before neutralization with 2 mL, 1.8 M sodium acetate at pH 6.0. The neutralized sample was added to the remaining 9 mL of procathepsin K. The mixture was incubated at 4° C. for 2-3 days. The activated cathepsin K was chromatographed on a Poros HS II column as described above.
Potential inhibitors were evaluated using the progress curve method. Assays were carried out in the presence of variable concentrations of test compound. Reactions were initiated by addition of buffered solutions of inhibitor and substrate to enzyme. Data analysis was conducted according to one of two procedures depending on the appearance of the progress curves in the presence of inhibitors. […] Ki values were calculated from IC50 values using equation 2 assuming a competitive model.
With `CCCC[C@H](NC(=O)O[C@@H]1CN(C(=O)NC2CCCCC2)CC1(C)C)C(=O)C(=O)N[C@H](C)c1ccccc1` [Example 68, (3S)-1-[(Cyclohexylamino)carbonyl]-4,4-dimethylpyrrolidinyl (1S)-1-(oxo{[(1R)-1-phenylethyl]amino}acetyl)pentylcarbamate], the IC50 is 10 to 100 nM.

Take `CCCC[C@H](NC(=O)O[C@@H]1CN(C(=O)OCc2c(-c3c(Cl)cccc3Cl)noc2C)CC1(C)C)C(=O)C(=O)N[C@H](C)c1ccccc1` [Example 53, [3-(2,6-Dichlorophenyl)-5-methyl-4-isoxazolyl]methyl (4S)-3,3-dimethyl-4-[({[(1S)-1-(oxo{[(1R)-1-phenylethyl]amino}acetyl)pentyl]amino}carbonyl)oxy]-1-pyrrolidinecarboxylate]: the 50% inhibitory concentration (IC50) lay within 1 to 10 nM.

In the case of `CCCC[C@H](NC(=O)O[C@@H]1CN(C(=O)c2ccno2)CC1(C)C)C(=O)C(=O)N[C@H](C)c1ccccc1` [Example 12], the half-maximal inhibitory concentration (IC50) lay in the range of 1 to 10 nM. In the case of `CCCC[C@H](NC(=O)OC1C(=O)N(C)CC1(C)C)C(=O)C(=O)N[C@H](C)c1ccccc1` (stereo partly drawn) [Example 7, 1,4,4-trimethyl-2-oxo-3-pyrrolidinyl (1S)-1-(oxo{[(1R)-1-phenylethyl]amino}acetyl)pentylcarbamate] it was 10 to 100 nM; in that of `CCCC[C@H](NC(=O)O[C@@H]1CN(C(=O)c2n[nH]c3ccccc23)CC1(C)C)C(=O)C(=O)N[C@H](C)c1ccccc1` [Example 36, (3S)-1-(1H-Indazol-3-ylcarbonyl)-4,4-dimethylpyrrolidinyl (1S)-1-(oxo {[(1R)-1-phenylethyl]amino}acetyl)pentylcarbamate], 1 to 10 nM; in that of `CCCC[C@H](NC(=O)O[C@@H]1CN(C(=O)OCc2cccc(-c3ccccc3)c2C)CC1(C)C)C(=O)C(=O)N[C@H](C)c1ccccc1` [Example 54, (2-Methyl[1,1′-biphenyl]-3-yl)methyl (4S)-3,3-dimethyl-4-[({[(1S)-1-(oxo{[(1R)-1-phenylethyl]amino}acetyl)pentyl]amino}carbonyl)oxy]-1-pyrrolidinecarboxylate], 10 to 100 nM. Regarding `CCCC[C@H](NC(=O)O[C@@H]1CN(C(=O)Cc2ccccc2Oc2ccccc2)CC1(C)C)C(=O)C(=O)N[C@H](C)c1ccccc1` [Example 31, (3S)-4,4-Dimethyl-1-[(2-phenoxyphenyl)acetyl]pyrrolidinyl (1S)-1-(oxo{[(1R)-1-phenylethyl]amino}acetyl)pentylcarbamate], the IC50 lay within 10 to 100 nM.

In the case of `CCCC[C@H](NC(=O)O[C@@H]1CN(C(=O)Nc2cc(F)ccc2C)CC1(C)C)C(=O)C(=O)N[C@H](C)c1ccccc1` [Example 72, (3S)-1-[(5-Fluoro-2-methylanilino)carbonyl]-4,4-dimethylpyrrolidinyl (1S)-1-(oxo{[(1R)-1-phenylethyl]amino}acetyl)pentylcarbamate], the 50% inhibitory concentration (IC50) lay in the range of 1 to 10 nM. With `CCCC[C@H](NC(=O)O[C@@H]1CN(C(=O)Nc2ccc(C(F)(F)F)cc2)CC1(C)C)C(=O)C(=O)N[C@H](C)c1ccccc1` [Example 70, (3S)-4,4-Dimethyl-1-{[4-(trifluoromethyl)anilino]carbonyl}pyrrolidinyl (1S)-1-(oxo {[(1R)-1-phenylethyl]amino}acetyl)pentylcarbamate] the figure was 1 to 10 nM; with `CCCC[C@H](NC(=O)O[C@@H]1CN(C(=O)Oc2ccc3ccccc3c2)CC1(C)C)C(=O)C(=O)N[C@H](C)c1ccccc1` [Example 60, 2-Naphthyl (4S)-3,3-dimethyl-4-[({[(1S)-1-(oxo {[(1R)-1-phenylethyl]amino}acetyl)pentyl]amino}carbonyl)oxy]-1-pyrrolidinecarboxylate], 10 to 100 nM.

Turning to `CCCC[C@H](NC(=O)O[C@@H]1CN(C(=O)OCCc2ccccc2)CC1(C)C)C(=O)C(=O)N[C@H](C)c1ccccc1` [Example 45, 2-Phenylethyl (4S)-3,3-dimethyl-4-[({[(1S)-1-(oxo {[(1R)-1-phenylethyl]amino}acetyl)pentyl]amino}carbonyl)oxy]-1-pyrrolidinecarboxylate], the IC50 is 10 to 100 nM.

In the case of `CCCC[C@H](NC(=O)O[C@@H]1CN(C(=O)OCc2ccccc2)CC1(C)C)C(=O)C(=O)N[C@H](C)c1ccccc1` [Example 44, Benzyl (4S)-3,3-dimethyl-4-[({[(1S)-1-(oxo{[(1R)-1-phenylethyl]amino}acetyl)pentyl]amino}carbonyl)oxy]-1-pyrrolidinecarboxylate], the IC50 lay within 10 to 100 nM.

`CCCC[C@H](NC(=O)O[C@@H]1CN(C(=O)c2ccc3[nH]ccc3c2)CC1(C)C)C(=O)C(=O)N[C@H](C)c1ccccc1` [Example 21, (3S)-1-(1H-Indol-5-ylcarbonyl)-4,4-dimethylpyrrolidinyl (1S)-1-(oxo{[(1R)-1-phenylethyl]amino}acetyl)pentylcarbamate]: the IC50 lay in the range of 1 to 10 nM. In the case of `CCCC[C@H](NC(=O)O[C@@H]1CN(C(=O)c2csc(-c3ccncc3)n2)CC1(C)C)C(=O)C(=O)N[C@H](C)c1ccccc1` [Example 26, (3S)-4,4-Dimethyl-1-{[2-(4-pyridinyl)-1,3-thiazol-4-yl]carbonyl}pyrrolidinyl (1S)-1-(oxo{[(1R)-1-phenylethyl]amino}acetyl)pentylcarbamate], the IC50 fell in the range of 10 to 100 nM. With `CCCC[C@H](NC(=O)O[C@@H]1CN(C(=O)OCc2ccc(-c3ccccc3)cc2)CC1(C)C)C(=O)C(=O)N[C@H](C)c1ccccc1` [Example 40, [1,1′-biphenyl]-4-ylmethyl (4S)-3,3-dimethyl-4-[({[(1S)-1-(oxo{[(1R)-1-phenylethyl]amino}acetyl)pentyl]amino}carbonyl)oxy]-1-pyrrolidinecarboxylate], the IC50 is 1 to 10 nM. In the case of `CCCC[C@H](NC(=O)O[C@@H]1CN(S(=O)(=O)c2ccc3c(c2)OCCO3)CC1(C)C)C(=O)C(=O)N[C@H](C)c1ccccc1` [Example 80, (3S)-1-(2,3-Dihydro-1,4-benzodioxin-6-ylsulfonyl)-4,4-dimethylpyrrolidinyl (1S)-1-(oxo{[(1R)-1-phenylethyl]amino}acetyl)pentylcarbamate] it was 10 to 100 nM; in that of `CCCC[C@H](NC(=O)O[C@@H]1CN(C(=O)OCc2ccsc2)CC1(C)C)C(=O)C(=O)N[C@H](C)c1ccccc1` [Example 42, 3-Thienylmethyl (4S)-3,3-dimethyl-4-[({[(1S)-1-(oxo {[(1R)-1-phenylethyl]amino}acetyl)pentyl]amino}carbonyl)oxy]-1-pyrrolidinecarboxylate], 10 to 100 nM. `CCCC[C@H](NC(=O)O[C@@H]1CN(C(=O)c2cc3ccccc3s2)CC1(C)C)C(=O)C(=O)N[C@H](C)c1ccccc1` [Example 17, (3S)-1-(1-Benzothien-2-ylcarbonyl)-4,4-dimethylpyrrolidinyl (1S)-1-(oxo{[(1R)-1-phenylethyl]amino}acetyl)pentylcarbamate]: the concentration for half-maximal inhibition (IC50) lay within 1 to 10 nM. For the compound `CCCC[C@H](NC(=O)O[C@@H]1CN(C(=O)N2CCOCC2)CC1(C)C)C(=O)C(=O)N[C@H](C)c1ccccc1` [Example 73, (3S)-4,4-Dimethyl-1-(4-morpholinylcarbonyl)pyrrolidinyl (1S)-1-(oxo{[(1R)-1-phenylethyl]amino}acetyl)pentylcarbamate], the IC50 lay in the range of 10 to 100 nM.

(Values after patent US7402606B2, “Derivatives of 1-(oxoaminoacetyl) pentylcarbamate as cathepsin K inhibitors for the treatment of bone loss” (SmithKline Beecham Corporation, priority 2002, dated 2008).)
